Assay results: patent publication US11130766B2, “Deuterated thienopiperidine derivatives, manufacturing method, and application thereof” (JIANGSU TASLY DIYI PHARMACEUTICAL CO., LTD., priority 2015, dated 2021)
Read-outs that look alike come from different tables or passages of the source. Marks after values point to notes of the source that are not given here.

How the values were obtained:
[1] = test system: ADP induced platelet aggregation; assay: ADP induced platelet aggregation, maximum aggregation rate after administration to rats; type: in vivo, Wistar male rats; settings: ADP induced, rats, 3 mg/kg, blood drawn 2 hours after administration
Protocol: Addition of small dose of ADP (concentration less than 0.9 μmol/L) into the platelet suspension could lead to rapid platelet aggregation, followed by quick disaggregation; if moderate dose of ADP (about 1.0 μmol/L) was added, then the second irreversible aggregation phase appeared not long after the end of the first aggregation phase and the disaggregation. The maximum aggregation rate of the irreversible aggregation phase was used to evaluate the effect of the test samples on the function of blood coagulation.
Animals: Wistar male rats, weighing 230-250 g, were purchased from Vital River Laboratory Animal Technology Co., Ltd.
Reagent: ADP, Sigma Corporation.
Test samples: 16 test samples were provided by the Tasly Group; referred to China patent application 201310428052.4 for manufacturing method of TSC-1˜4 and TSC-6˜9.
Dose of administration: the test samples were suspended with 0.25% CMC, administered 3 mg/kg weight, volume of administration: 2 mL.
2 Hours after administration, the rats were anesthetized with pentobarbital sodium, and blood was drawn from the abdominal aorta, anticoagulated with sodium citrate with a ratio of 1:9, and centrifuged to obtain the platelet-rich plasma and platelet-poor plasma, with the mixed ratio of the platelet-poor plasma to platelet-rich plasma=3:1.

Rat Tail Bleeding Model = settings: SD rat, 10 mg/kg oral gavage, 4 h after administration
Protocol: genus, strain SD rat, • Provider: Slac • Weight: 250-350 g • Sex: male • Animal number: 30
Experimental Method: • The animals were allowed adapt to the environment after arrival for 1 week and fasted for 16 hours prior to the experiment. • The tail bleeding time started to be recorded 2 h after oral administration of the test compounds and 4 h after oral administration of clopidogrel. • The rats were anesthetized with pentobarbital sodium (50 mg/kg, ip) 10 min prior to the recording of the tail bleeding time, after the rat was completely anesthetized and reaching the detection time, the tail was cut at 1.3 mm from the rat tail-tip with a scissor and perpendicularly immerged into a saline at 37° C. Timing recording was not started until the blood flow appeared. • The timing recording was stopped when the bleeding time interval was longer than 20 seconds. The maximum observation time for the blood flow was set for 40 minutes. If it was longer than 40 minutes, the timing recording was stopped and the time was recorded as 40 minutes.

[2] = test system: Rat Arteriovenous Thrombus Loop Model; settings: SD rat, 10 mg/kg oral gavage, 4 h after administration, 15 min circulation
Text: genus, strain: SD rat, • Provider: Slac • Weight: 250-350 g • Sex: male • Animal number: 30
Apparatus and Materials • Swab, dry tampon, alcohol pad, anerdian tampon. • Surgical scissor, ophthalmic forceps, hemostatic forceps, microsurgical scissor, microsurgical forceps, artery clamps. • 3-0 surgical suture, thick PE tube (I.D.*O.D.=1.14 mm*1.63 mm, 8 cm long), think PE tube (I.D.*O.D.=0.72 mm*1.22 mm, 6 cm long). • Surgical board, binding rope, timer, precise electronic balance, weighing paper. • Syringe, normal saline.
7. Experimental Method • After arrival, the animals were let adapt to the environment for 1 week and fasted for 16 hours prior to the test. • The arteriovenous blood loop circulation was started 2 h after oral administration of the test compounds and 4 h after oral administration of clopidogrel. • The rats were anesthetized with pentobarbital sodium (50 mg/kg, ip) 15 min before the arteriovenous blood loop circulation was started. • The left external jugular vein and the right carotid artery were separated and inserted with thin PE tubes respectively. • Two PE tubes were connected with another thick PE tube with a length of 8 cm to form a circulation passage. There's a 6 cm surgical suture (3-0) in the thick PE tube. • 15 min after the circulation passage was opened, the blood flow was blocked, the filament was taken out and weighed after the blood was sucked out. The thrombus weight was obtained after subtraction of the weight of the filament itself.

esterase [3] = settings: rat whole blood, 37° C., 30 μg/mL
Protocol: The hydrolysis rates of formula TSD-6 and clopidogrel bisulfate in the rat whole blood were determined by employing the in vitro incubation method.
3 mL of the rat fresh whole blood was taken and placed in a glass test tube. 30 μg/mL of formula TSD-6 and clopidogrel bisulfate (prepared with saline) were added, with 3 parallel tests for each group. The test tubes were shocked at a constant temperature of 37° C., 100 μL of the mixture was taken out at fixed time points of 10 min, 20 min, 30 min, 40 min, 50 min, 60 min, 70 min, 80 min, 90 min, 100 min, 110 min, and 120 min, into which 900 μL of methanol was added to stop the reaction immediately, then 100 μL methanol/water (1:1, v/v) and 100 μL internal standard (diazepam, 100 ng/mL) were added sequentially. The mixture was centrifuged at 13000 rpm at low temperature for 10 min, the supernatant was transferred into another EP tube, and 20 μL of the supernatant was taken for sample injection.

esterase [4] = assay: Esterase hydrolysis rates of TSD-8 and clopidogrel bisulfate, in vitro incubation in rat whole blood; type: in vitro ADME; parameters: sample test results (concentration) Num. 1 / sample test results (concentration) Num. 2 / sample test results (concentration) Num. 3 / sample test results (concentration) Mean: unit not given here; settings: rat whole blood, 37° C., 30 μg/mL

time at which the concentration in the whole blood was lower than the quantitative lower limit (esterase [3]): around 50 min
sample test results (concentration) Mean (esterase [3]; 10 min): 211.0
sample test results (concentration) Num. 1 (esterase [3]; 10 min): 238
sample test results (concentration) Num. 2 (esterase [3]; 10 min): 221
sample test results (concentration) Num. 3 (esterase [3]; 10 min): 174
sample test results (concentration) Mean (esterase [3]; 20 min): 89.6
sample test results (concentration) Num. 1 (esterase [3]; 20 min): 66.2
sample test results (concentration) Num. 2 (esterase [3]; 20 min): 128
sample test results (concentration) Num. 3 (esterase [3]; 20 min): 74.7
sample test results (concentration) Mean (esterase [3]; 30 min): 35.1
sample test results (concentration) Num. 1 (esterase [3]; 30 min): 24.1
sample test results (concentration) Num. 2 (esterase [3]; 30 min): 57.2
sample test results (concentration) Num. 3 (esterase [3]; 30 min): 24.1
sample test results (concentration) Mean (esterase [3]; 40 min): 11.2
sample test results (concentration) Num. 1 (esterase [3]; 40 min): 6.27
sample test results (concentration) Num. 2 (esterase [3]; 40 min): 15.1
sample test results (concentration) Num. 3 (esterase [3]; 40 min): 19.3
sample test results (concentration) Mean (esterase [3]; 50 min): 0.70
sample test results (concentration) Num. 1 (esterase [3]; 50 min): 0.449
sample test results (concentration) Num. 2 (esterase [3]; 50 min): 1.12
sample test results (concentration) Num. 3 (esterase [3]; 50 min): 0.518
sample test results (concentration) Mean (esterase [3]; 60 min): 0.62
sample test results (concentration) Num. 1 (esterase [3]; 60 min): 0.417
sample test results (concentration) Num. 2 (esterase [3]; 60 min): 1.45
sample test results (concentration) Num. 3 (esterase [3]; 60 min): 0
sample test results (concentration) Mean (esterase [3]; 90 min): 0
sample test results (concentration) Num. 1 (esterase [3]; 90 min): 0
sample test results (concentration) Num. 2 (esterase [3]; 90 min): 0
sample test results (concentration) Num. 3 (esterase [3]; 90 min): 0
sample test results (concentration) Mean (esterase [3]; 100 min): 0
sample test results (concentration) Num. 1 (esterase [3]; 100 min): 0
sample test results (concentration) Num. 2 (esterase [3]; 100 min): 0
sample test results (concentration) Num. 3 (esterase [3]; 100 min): 0
sample test results (concentration) Mean (esterase [3]; 110 min): 0
sample test results (concentration) Num. 1 (esterase [3]; 110 min): 0
sample test results (concentration) Num. 2 (esterase [3]; 110 min): 0
sample test results (concentration) Num. 3 (esterase [3]; 110 min): 0
sample test results (concentration) Mean (esterase [3]; 120 min): 0
sample test results (concentration) Num. 1 (esterase [3]; 120 min): 0
sample test results (concentration) Num. 2 (esterase [3]; 120 min): 0
sample test results (concentration) Num. 3 (esterase [3]; 120 min): 0
time at which the concentration in the whole blood was lower than the quantitative lower limit (esterase [4]): around 50 min
sample test results (concentration) Mean (esterase [4]; 10 min): 199.50
sample test results (concentration) Num. 1 (esterase [4]; 10 min): 232
sample test results (concentration) Num. 3 (esterase [4]; 10 min): 167
sample test results (concentration) Mean (esterase [4]; 20 min): 90.53
sample test results (concentration) Num. 1 (esterase [4]; 20 min): 64.1
sample test results (concentration) Num. 2 (esterase [4]; 20 min): 131
sample test results (concentration) Num. 3 (esterase [4]; 20 min): 76.5
sample test results (concentration) Mean (esterase [4]; 30 min): 34.07
sample test results (concentration) Num. 1 (esterase [4]; 30 min): 20.6
sample test results (concentration) Num. 2 (esterase [4]; 30 min): 53
sample test results (concentration) Num. 3 (esterase [4]; 30 min): 28.6
sample test results (concentration) Mean (esterase [4]; 40 min): 11.82
sample test results (concentration) Num. 1 (esterase [4]; 40 min): 6.46
sample test results (concentration) Num. 2 (esterase [4]; 40 min): 14.3
sample test results (concentration) Num. 3 (esterase [4]; 40 min): 14.7
sample test results (concentration) Mean (esterase [4]; 50 min): 0.62
sample test results (concentration) Num. 1 (esterase [4]; 50 min): 0.479
sample test results (concentration) Num. 2 (esterase [4]; 50 min): 1.01
sample test results (concentration) Num. 3 (esterase [4]; 50 min): 0.359
sample test results (concentration) Mean (esterase [4]; 60 min): 0.53
sample test results (concentration) Num. 1 (esterase [4]; 60 min): 0.347
sample test results (concentration) Num. 2 (esterase [4]; 60 min): 1.24
sample test results (concentration) Num. 3 (esterase [4]; 60 min): 0
sample test results (concentration) Mean (esterase [4]; 90 min): 0.00
sample test results (concentration) Num. 1 (esterase [4]; 90 min): 0
sample test results (concentration) Num. 2 (esterase [4]; 90 min): 0
sample test results (concentration) Num. 3 (esterase [4]; 90 min): 0
sample test results (concentration) Mean (esterase [4]; 100 min): 0.00
sample test results (concentration) Num. 1 (esterase [4]; 100 min): 0
sample test results (concentration) Num. 2 (esterase [4]; 100 min): 0
sample test results (concentration) Num. 3 (esterase [4]; 100 min): 0
sample test results (concentration) Mean (esterase [4]; 110 min): 0.00
sample test results (concentration) Num. 1 (esterase [4]; 110 min): 0
sample test results (concentration) Num. 2 (esterase [4]; 110 min): 0
sample test results (concentration) Num. 3 (esterase [4]; 110 min): 0
sample test results (concentration) Mean (esterase [4]; 120 min): 0.00
sample test results (concentration) Num. 1 (esterase [4]; 120 min): 0
sample test results (concentration) Num. 2 (esterase [4]; 120 min): 0
sample test results (concentration) Num. 3 (esterase [4]; 120 min): 0
SMILES: COC(=O)[C@H](c1ccccc1Cl)N1CCc2sccc2C1 [clopidogrel, Clopidogrel, reference compound]
Maximum Platelet Aggregation Rate [1]: 46.77 ± 8.28
Tail Bleeding Time (s) (Rat Tail Bleeding Model): 1896*** s
Thrombus (mg) [2]: 20.1** mg
